Results published in article PMC6265310, “Purification, Characterization and in vitro Evaluation of Polymyxin A From Paenibacillus dendritiformis: An Underexplored Member of the Polymyxin Family” (Frontiers in Microbiology, 2018).
≈ marks a conversion by molar mass, not a printed value. Like-named read-outs stand apart in the source and are kept apart here. Where a SMILES comes first, the peptide text is derived from it. Bridges are numbered along the chain shown (N, C = ends). [ ]: non-standard residue; d: D form. The star is where a group is joined. Heptanoyl(6-Me) = CC(C)CCCCC(=O)*; dDab = NCC[C@@H](N)C(=O)O; Dab = NCC[C@H](N)C(=O)O

What was measured:
[1] = test system: Acinetobacter baumannii ATCC 19606
[2] = test system: Enterococcus faecalis ATCC 51299
[3] = test system: Staphylococcus aureus ATCC 25923
[4] = test system: Klebsiella pneumoniae ATCC- BAA 2146
[5] = test system: Bacillus subtilis ATCC 6633
[6] = test system: human leukemic monocyte cell line (THP-1 ATCC TIB-202); format: cell-based
Procedure: (§1) 3-(4,5-dimethylthiazol-2-yl)-2,5-diphenyltetrazolium bromide (MTT) assay was employed to examine the cytotoxicity against human leukemic monocyte cell line (THP-1 ATCC TIB-202) and human embryonic kidney cell line (HEK293 ATCC CRL-1573) as explained by [Kaur et al. (2017)]. Toxicity of both compounds was compared with polymyxin B and colistin at concentrations ranging from 62.5 to1000 μg/ml.

[7] = test system: Klebsiella pneumoniae ATCC BAA1706
[8] = test system: Escherichia coli ATCC 35218
[9] = test system: Vibrio cholerae MTCC 3906
[10] = test system: Pseudomonas aeruginosa ATCC 27853
P. aeruginosa ATCC 27853 = experiment: Time-kill kinetics; format: cell-based; settings: P. aeruginosa ATCC 27853, 2xMIC
[11] = test system: Vibrio parahaemolyticus ATCC17802
[12] = test system: Klebsiella pneumoniae ATCC 700603
[13] = test system: LPS (E. coli strain 055:B5 origin); format: binding; settings: read-out: Dissociation constant (Kd)
[14] = test system: Klebsiella pneumoniae ATCC 29665
[15] = test system: Escherichia coli ATCC 25922
[16] = test system: human embryonic kidney cell line (HEK293 ATCC CRL-1573); format: cell-based
Procedure: as §1

E. coli ATCC 25922 = experiment: NPN uptake assay, outer membrane permeabilization; format: cell-based; settings: E. coli ATCC 25922, 10 and 20 μg/ml, 1 h, compared with polymyxin B
[17] = test system: clinical MDR isolates (E. coli, K. pneumoniae, A. baumanii, P. aeruginosa); format: cell-based; settings: in 25 of 31 clinical isolates

polymyxin B [PB, reference compound]
MIC ([1]; Acinetobacter baumannii ATCC 19606, Ca-MHB, 37°C, 20–24 h): 1 µg/mL | MIC (K. Pneumoniae GMCH10): 1 µg/mL | MIC ([2]; Enterococcus faecalis ATCC 51299): >16 µg/mL | MIC (K. Pneumoniae 1428): 2 µg/mL | MIC ([3]; Staphylococcus aureus ATCC 25923): 16 µg/mL | MIC ([4]; Klebsiella pneumoniae ATCC- BAA 2146): 1 µg/mL | MIC ([5]; Bacillus subtilis ATCC 6633): 4 µg/mL | MIC (K. Pneumoniae 1573): 1 µg/mL | IC50 ([6]; THP-1 cells, MTT, 62.5 to 1000 μg/ml): 125 µg/mL | MIC ([7]; Klebsiella pneumoniae ATCC BAA1706): 1 µg/mL | MIC (K. Pneumoniae GMCH04): 0.5 µg/mL | MIC (E. coli 3185): 0.5 µg/mL | MIC (A. baumannii AB2): 1 µg/mL | MIC ([8]; Escherichia coli ATCC 35218): 0.5 µg/mL | MIC (E. coli 13425): 1 µg/mL | MIC (A. baumannii GMCH05): 1 µg/mL | MIC (K. Pneumoniae 827): 1 µg/mL | MIC [9]: 8 µg/mL | MIC (E. coli 7210): 1 µg/mL | MIC ([10]; Pseudomonas aeruginosa ATCC 27853): 1 µg/mL | MIC (A. baumannii AB1): 1 µg/mL | time to kill (P. aeruginosa ATCC 27853): 2 h | MIC (A. baumannii GMCH18): 1 µg/mL | MIC (E. coli 14504): 1 µg/mL | MIC (K. Pneumoniae B8): 1 µg/mL | MIC (P. aeruginosa PA3): 2 µg/mL | MIC (E. coli 14363): 0.5 µg/mL | MIC (K. Pneumoniae GMCH 16): 0.5 µg/mL | MIC [11]: 1 µg/mL | MIC ([12]; Klebsiella pneumoniae ATCC 700603): 1 µg/mL | MIC (A. baumannii GMCH 14): 1 µg/mL | MIC (K. Pneumoniae GMCH11): 1 µg/mL | MIC (P. aeruginosa GMCH06): 1 µg/mL | MIC (E. coli 9062): 1 µg/mL | MIC (P. aeruginosa PA2): 2 µg/mL | MIC (P. aeruginosa PA1): 2 µg/mL | MIC (K. Pneumoniae GMCH12): 1 µg/mL | MIC (P. aeruginosa PA5): 2 µg/mL | MIC (P. aeruginosa PA6): 2 µg/mL | MIC (E. coli 7932): 1 µg/mL | MIC (P. aeruginosa PA4): 1 µg/mL | MIC (E. coli 14084): 0.5 µg/mL | Kd [13]: 3.39 µM | MIC ([14]; Klebsiella pneumoniae ATCC 29665): 1 µg/mL | MIC (K. Pneumoniae GMCH13): 1 µg/mL | MIC (E. coli 7534): 1 µg/mL | MIC ([15]; Escherichia coli ATCC 25922): 1 µg/mL

CC(C)CCCCC(=O)N[C@@H](CCN)C(=O)N[C@H](C(=O)N[C@H](CCN)C(=O)N[C@H]1CCNC(=O)[C@H]([C@@H](C)O)NC(=O)[C@H](CCN)NC(=O)[C@H](CCN)NC(=O)[C@H]([C@@H](C)O)NC(=O)[C@@H](CC(C)C)NC(=O)[C@H](CCN)NC1=O)[C@@H](C)O [P1, polymyxin A2] ({Heptanoyl(6-Me)}-[Dab]T[dDab][Dab][Dab][dL]T[Dab][Dab]T; lactam 4-C)
MIC ([1]; ATCC 19606): 0.5 µg/mL (≈ 0.437 µM) | MIC (K. Pneumoniae GMCH10; GMCH10): 1 µg/mL (≈ 0.875 µM) | MIC ([2]; ATCC 51299): >16 µg/mL | MIC (K. Pneumoniae 1428; 1428): 1 µg/mL (≈ 0.875 µM) | MIC ([3]; ATCC 25923): >16 µg/mL | MIC ([4]; BAA 2146): 0.5 µg/mL (≈ 0.437 µM) | MIC ([5]; ATCC 6633): 16 µg/mL (≈ 14 µM) | MIC (K. Pneumoniae 1573; 1573): 0.5 µg/mL (≈ 0.437 µM) | IC50 [6]: approximately 1000 μg/ml | IC50 [16]: > 1000 µg/mL | MIC ([7]; ATCC BAA1706): 0.5 µg/mL (≈ 0.437 µM) | MIC (K. Pneumoniae GMCH04; GMCH04): 0.25 µg/mL (≈ 0.219 µM) | MIC (E. coli 3185; 3185): 0.25 µg/mL (≈ 0.219 µM) | NPN uptake (fluorescence intensity) (E. coli ATCC 25922): slightly higher NPN uptake | MIC (A. baumannii AB2; AB2): 1 µg/mL (≈ 0.875 µM) | MIC ([8]; ATCC 35218): 0.25 µg/mL (≈ 0.219 µM) | MIC (E. coli 13425; 13425): 0.25 µg/mL (≈ 0.219 µM) | MIC (A. baumannii GMCH05; GMCH05): 1 µg/mL (≈ 0.875 µM) | MIC (K. Pneumoniae 827; 827): 0.5 µg/mL (≈ 0.437 µM) | MIC [9]: >16 µg/mL | MIC (E. coli 7210; 7210): 0.25 µg/mL (≈ 0.219 µM) | MIC ([10]; ATCC 27853): 0.5 µg/mL (≈ 0.437 µM) | MIC (A. baumannii AB1; AB1): 0.5 µg/mL (≈ 0.437 µM) | time to kill (P. aeruginosa ATCC 27853): 4 h | fold less MIC than the other polymyxins [17]: 2–4 fold | MIC (A. baumannii GMCH18; GMCH18): 0.25 µg/mL (≈ 0.219 µM) | MIC (E. coli 14504; 14504): 0.25 µg/mL (≈ 0.219 µM) | MIC (K. Pneumoniae B8; B8): 0.5 µg/mL (≈ 0.437 µM) | MIC (P. aeruginosa PA3; PA3): 1 µg/mL (≈ 0.875 µM) | MIC (E. coli 14363; 14363): 0.25 µg/mL (≈ 0.219 µM) | MIC (K. Pneumoniae GMCH 16; GMCH 16): 0.5 µg/mL (≈ 0.437 µM) | MIC [11]: 1 µg/mL (≈ 0.875 µM) | MIC ([12]; ATCC 700603): 1 µg/mL (≈ 0.875 µM) | MIC (A. baumannii GMCH 14; GMCH 14): 0.5 µg/mL (≈ 0.437 µM) | MIC (K. Pneumoniae GMCH11; GMCH11): 1 µg/mL (≈ 0.875 µM) | MIC (P. aeruginosa GMCH06; GMCH06): 0.5 µg/mL (≈ 0.437 µM) | MIC (E. coli 9062; 9062): 0.25 µg/mL (≈ 0.219 µM) | MIC (P. aeruginosa PA2; PA2): 1 µg/mL (≈ 0.875 µM) | MIC (P. aeruginosa PA1; PA1): 1 µg/mL (≈ 0.875 µM) | MIC (K. Pneumoniae GMCH12; GMCH12): 0.5 µg/mL (≈ 0.437 µM) | MIC (P. aeruginosa PA5; PA5): 1 µg/mL (≈ 0.875 µM) | MIC (P. aeruginosa PA6; PA6): 1 µg/mL (≈ 0.875 µM) | MIC (E. coli 7932; 7932): 0.25 µg/mL (≈ 0.219 µM) | MIC (P. aeruginosa PA4; PA4): 1 µg/mL (≈ 0.875 µM) | MIC (E. coli 14084; 14084): 0.25 µg/mL (≈ 0.219 µM) | MIC ([14]; ATCC 29665): 0.5 µg/mL (≈ 0.437 µM) | MIC (K. Pneumoniae GMCH13; GMCH13): 0.5 µg/mL (≈ 0.437 µM) | MIC (E. coli 7534; 7534): 0.25 µg/mL (≈ 0.219 µM) | MIC ([15]; ATCC 25922): 1 µg/mL (≈ 0.875 µM)
